# Experimental data published in patent publication US8431747B2, “Process for the preparation of monomers for polybenzimidazole materials” (E I du Pont de Nemours and Company, priority 2008, dated 2013).
# Where a name gives a salt, the structure may show the parent alone.
# Assay: solubility of TAT salt in water
# Type: physicochemical
# Settings: 25° C.
# Description: The reaction mixture containing the precipitated TAT salt is then cooled to about 5° C. to about 15° C. and stirred, then filtered. The TAT salt is then washed 44. It may be washed with deaerated aqueous acid, such as HCl (33%), and then optionally with deaerated ethanol or methanol to produce a wet cake material. The used acid can then be distilled and recycled (31, 30, 33). […] Using an agitated filter unit during the wash procedures can allow for a reduction of the wash volumes. Under such circumstances, using small amounts of cold (e.g., about 5° C.) water instead of the aqueous acid would be effective; cold water would be used because of lower solubility of the TAT salt in cold water versus, e.g., room temperature. For example, the solubility of TAT.4HCl in water at 25° C. is about 16 wt %.
smiles,measurement,value
"Cc1c(N)c(N)cc(N)c1N [TAT.4HCl, 2,3,5,6-tetraaminotoluene salt]",solubility in water,about 16 wt %
